Article PMC12560079, “Cytotoxic Triterpene Glycosides from Mexican Sea Cucumber Holothuria inornata” (Journal of Natural Products, 2025)
Where two headings read alike, the source gives them in different places.

Tests used:
[1] = test system: human glioblastoma (U251); experiment: SRB cytotoxicity assay, U251; assay type: cell-based; conditions: U-251, SRB method, 48 h exposure, ± SD, read-out: Cell Line IC50 U251
Procedure: (§1) Cytotoxicity was evaluated based on the percentage of cell growth inhibition. The cancer cell lines were obtained from the National Cancer Institute (NCI, Bethesda, MD). The study utilized human cancer cell lines derived from central nervous system glia (U251), prostate (PC-3), leukemia (K562), colon (HCT-15), breast (MCF-7), and lung (SKLU). Each cell line was maintained in RPMI 1640 medium supplemented with fetal bovine serum (10%), L-glutamate (2.0 mM), 10,000 units/mL penicillin G, 10,000 […] sulfate, […] amphotericin B and 1% nonessential amino acids. Cytotoxicity was assessed by treating cancerous cells with the extract, the saponin fraction, and the major isolated compounds, all of which were solubilized in ultrapure water (18.2 MΩ) and tested at a concentration of 25 μg/mL. For the determination of IC50 values, the same cancer cell lines were evaluated and had the same treatment, while the range of concentrations was 25, 12.5, 6.5, 5.0, 2.5, and 1.25 μg/mL in triplicate wells for each concentration; commercially formulated mitoxantrone, used as a water-soluble chemotherapeutic drug, was used as a positive control, and ultrapure water was used as a negative control. The resulting data obtained from the assay for each cell line were analyzed using nonlinear regression to calculate IC50 using GraphPad Prism 10.5.0 (San Diego, CA, USA). The percentage of cell growth inhibition was determined by using the protein-binding dye sulforhodamine B (SRB) in a microculture assay. Cells were harvested from culture flasks and seeded into 96-well plates at a density of 5,000 to 10,000 cells per well, maintaining the same temperature and humidity conditions as during culture incubation. The test compounds were then added, and cells were exposed for 48 h. After incubation, cells were fixed in situ by adding 50 μL of cold 50% trichloroacetic acid and incubating at 4 °C for 1 h. […] The plates were then shaken for 10 min, and absorbance was measured at 515 nm using a microplate spectrophotometer.

[2] = test system: human colorectal adenocarcinoma (HCT-15); experiment: SRB cytotoxicity assay, HCT-15; assay type: cell-based; conditions: SRB method, 48 h exposure, ± SD, read-out: Cell Line IC50 HCT-15
Procedure: as §1

[3] = test system: human mammary adenocarcinoma (MCF-7); experiment: SRB cytotoxicity assay, MCF-7; assay type: cell-based; conditions: MCF7, SRB method, 48 h exposure, ± SD, read-out: Cell Line IC50 MCF-7
Procedure: as §1

[4] = test system: human lung adenocarcinoma (SKLU-1); experiment: SRB cytotoxicity assay, SKLU-1; assay type: cell-based; conditions: SK-LU-1, SRB method, 48 h exposure, ± SD, read-out: Cell Line IC50 SKLU-1
Procedure: as §1

[5] = test system: human prostatic adenocarcinoma (PC-3); experiment: SRB cytotoxicity assay, PC-3; assay type: cell-based; conditions: SRB method, 48 h exposure, ± SD, read-out: Cell Line IC50 PC-3
Procedure: as §1

[6] = test system: cancer cell lines U251, PC-3, K562, HCT-15, MCF-7, SKLU-1; experiment: SRB cytotoxicity assay, panel of six cancer cell lines; assay type: cell-based, human; conditions: for growth inhibition (cytotoxic activity) of cancer cell lines: 25 μg/mL, six cell lines, result in words (Figure 1)
Procedure: Cytotoxicity was evaluated based on the percentage of cell growth inhibition. The cancer cell lines were obtained from the National Cancer Institute (NCI, Bethesda, MD). The study utilized human cancer cell lines derived from central nervous system glia (U251), prostate (PC-3), leukemia (K562), colon (HCT-15), breast (MCF-7), and lung (SKLU). Each cell line was maintained in RPMI 1640 medium supplemented with fetal bovine serum (10%), L-glutamate (2.0 mM), 10,000 units/mL penicillin G, […] streptomycin sulfate, 25 mg/mL amphotericin B and 1% nonessential amino acids. Cytotoxicity was assessed by treating cancerous cells with the extract, the saponin fraction, and the major isolated compounds, all of which were solubilized in ultrapure water (18.2 MΩ) and tested at a concentration of 25 μg/mL. For the determination of IC50 values, the same cancer cell lines were evaluated and had the same treatment, while the range of concentrations was 25, 12.5, 6.5, 5.0, 2.5, and 1.25 μg/mL in triplicate wells for each concentration; commercially formulated mitoxantrone, used as a water-soluble chemotherapeutic drug, was used as a positive control, and ultrapure water was used as a negative control. The resulting data obtained from the assay for each cell line were analyzed using nonlinear regression to calculate IC50 using GraphPad Prism 10.5.0 (San Diego, CA, USA). The percentage of cell growth inhibition was determined by using the protein-binding dye sulforhodamine B (SRB) in a microculture assay. Cells were harvested from culture flasks and seeded into 96-well plates at a density of 5,000 to 10,000 cells per well, maintaining the same temperature and humidity conditions as during culture incubation. The test compounds were then added, and cells were exposed for 48 h. After incubation, cells were fixed in situ by adding 50 μL of cold 50% trichloroacetic acid and incubating at 4 °C for 1 h. The plates were then washed with Milli-Q water, air-dried at room temperature, and stained with a 0.4% SRB solution. Excess SRB was removed by washing with 1% aqueous acetic acid. The plates were air-dried, and the bound dye was solubilized with 100 μL of a 10 mM unbuffered Tris base. The plates were then shaken for 10 min, and absorbance was measured at 515 nm using a microplate spectrophotometer.

[7] = test system: human chronic myelogenous leukemia (K562); experiment: SRB cytotoxicity assay, K562; assay type: cell-based; conditions: SRB method, 48 h exposure, ± SD, read-out: Cell Line IC50 K562
Procedure: as §1

[8] = Homo sapiens, span over the evaluated cell lines, SRB method, read-out: IC50 values across the tested cancer cell lines

| SMILES | IC50 [1] | IC50 [2] | IC50 [3] | IC50 [4] | IC50 [5] | IC50 [6, 8] | IC50 [7] | growth inhibition (cytotoxic activity) of cancer cell lines ([6]; SRB method) | IC50 ([6]; Homo sapiens, span over MCF-7 and SKLU-1 cell lines, read-out: IC50 values against MCF-7 and SKLU-1) | IC50 ([6]; span over the evaluated cell lines, SRB method, read-out: IC50 values across the tested cancer cell lines) |
| --- | --- | --- | --- | --- | --- | --- | --- | --- | --- | --- |
| O=C1c2c(O)ccc(O)c2C(=O)c2c(NCCNCCO)ccc(NCCNCCO)c21 [Mitoxantrone, reference compound] | 0.55 ± 0.04 µM | 0.75 ± 0.04 µM | 0.72 ± 0.01 µM | 1.16 ± 0.15 µM | 0.63 ± 0.04 µM | 0.55 to 1.16 µM | 0.65 ± 0.02 µM | – | – | – |
| COC1C(O)C(CO)OC(OC2C(O)C(CO)OC(OC3C(C)OC(OC4C(OC5CCC6(C)C7=CC(O)C89C(=O)OC(C)(CCCC(C)(C)OC(C)=O)C8(O)CCC9(C)C7CCC6C5(C)C)OCC(OS(=O)(=O)O)C4O)C(O)C3O)C2O)C1O [Inornatoside B (2), 25-acetoxy-3-O-(3-O-methyl-β-D-glucopyranosyl-(1→3)-β-D-glucopyranosyl-(1→4)-β-D-quinovopyranosyl-(1→2)-4-O-sodiumsulfate-β-D-xylopyranoside)-holost-9(11)-ene-3β,12α,17α-triol] | 0.54 ± 0.01 µM | 1.04 ± 0.01 µM | 0.47 ± 0.04 µM | 0.5 ± 0.01 µM | 0.49 ± 0.01 µM | 0.47 to 1.04 µM | 0.48 ± 0.01 µM | significantly more active than holothurin B (7) | 0.47 to 0.5 µM | ~0.5 µM |
| CC(=O)OC(C)(C)CCCC1(C)OC(=O)C23C(O)C=C4C(CCC5C4(C)CCC(OC4OCC(OS(=O)(=O)O)C(O)C4OC4OC(C)C(O)C(O)C4O)C5(C)C)C2(C)CCC13O [Inornatoside A (1), 25-acetoxy-3-O-(β-D-quinovopyranosyl-(1→2)-4-O-sodiumsulfate-β-D-xylopyranoside)-holost-9(11)-ene-3β,12α,17α-triol] | 3.53 ± 0.13 µM | 4.69 ± 0.01 µM | > 50 µM | 3.65 ± 0.02 µM | 5.35 ± 0.01 µM | 3.53 to 5.35 µM | 4.24 ± 0.02 µM | significantly more active than holothurin B (7) | – | – |
| CC1OC(OC2C(OC3CCC4(C)C5=CC(O)C67C(=O)OC(C)(C8CCC(C)(C)O8)C6(O)CCC7(C)C5CCC4C3(C)C)OCC(OS(=O)(=O)O)C2O)C(O)C(O)C1O (centres unmarked) [holothurin B (7), holothurin B] | – | – | – | – | – | – | – | did not exhibit high sensitivity | – | – |
